These results are taken from patent US8673929B2, “4,6-di- and 2,4,6-trisubstituted quinazoline derivatives and pharmaceutical compositions useful for treating viral infections” (priority 2006, dated 2014).

Data set [1] relates to HCV replicon. Kind of data set: Anti-HCV replicon assay, EC50 (luciferase readout). The data set is classed as cell-based. The settings on record: Hepatitis C virus, 72 h; Huh-7 HCV replicon cells, 3 days incubation, luciferase luminescence. In a few lines:
(§1)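 Huh-7 cells harbouring an HCV replicon (6000/well) incubated 3 days at 37° C with 3-fold serially diluted compound (0.5% DMSO final where used). EC50 from luciferase luminescence of lysed cells; CC50 from CellTiter-Glo luminescence in parallel plates.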

The nature of data set [2]: CC50 assay in the anti-HCV replicon assay (CellTiter-Glo). The data set is classed as cell-based, human. The settings on record: human, Huh-7 hepatoma cells harbouring an HCV replicon; Huh-7 HCV replicon cells, 3 days incubation, CellTiter-Glo luminescence. An outline of the steps: as §1

In turn, `Nc1nc(OCC2CCC2)c2cc(-c3ccc(F)c(F)c3F)ccc2n1` [Example 121, 4-Cyclobutylmethoxy-6-(2,3,4-trifluoro-phenyl)-quinazolin-2-ylamine] showed an EC50 in data set [1] of 1 to 10 µM. This compound showed a CC50 at 3 days in data set [2] of more than 20 µM.
For `N#Cc1ccc(-c2ccc3nc(N)nc(OCC4CCC4)c3c2)cc1` [Example 122, 4-(2-Amino-4-cyclobutylmethoxy-quinazolin-6-yl)-benzonitrile], in that order: 1 to 10 µM and more than 20 µM.
In data set [1], `Nc1nc(OCC2CCC2)c2cc(-c3ccc(C(F)(F)F)cc3Cl)ccc2n1` [Example 124] showed an EC50 of 1 to 10 µM. This compound registered a CC50 at 3 days in data set [2] of more than 20 µM.
For `CCOc1nc(N)nc2ccc(-c3ccc(C(=O)N(C)C)cc3)cc12` [Example 125, 4-(2-Amino-4-ethoxy-quinazolin-6-yl)-N,N-dimethyl-benzamide], the EC50 in data set [1] is 0.3 to 1 µM. The CC50 at 3 days in data set [2] was more than 20 µM.
For `CCOc1nc(N)nc2ccc(-c3ccc(C(=O)N4CCCC4)cc3)cc12` [Example 126, [4-(2-Amino-4-ethoxy-quinazolin-6-yl)-phenyl]-pyrrolidin-1-yl-methanone], in that order: 1 to 10 µM and more than 20 µM.
Turning to `CC(C)Oc1nc(N)nc2ccc(-c3ccc(C(=O)N(C)C)cc3)cc12` [Example 127, 4-(2-Amino-4-isopropoxy-quinazolin-6-yl)-N,N-dimethyl-benzamide], in data set [1], the EC50 fell in the range of 1 to 10 µM. In data set [2], this compound had a CC50 at 3 days of more than 20 µM.
`CC(C)Oc1nc(N)nc2ccc(-c3ccc(C(=O)N4CCOCC4)cc3)cc12` [Example 128, [4-(2-Amino-4-isopropoxy-quinazolin-6-yl)-phenyl]-morpholin-4-yl-methanone] showed an EC50 in data set [1] of 1 to 10 µM. Also, the CC50 at 3 days in data set [2] was more than 20 µM.
For `CCOc1nc(N)nc2ccc(-c3ccc(C(=O)NCc4ccccc4)cc3)cc12` [Example 149, 4-(2-Amino-4-ethoxy-quinazolin-6-yl)-N-benzyl-benzamide] the same measures were 1 to 10 µM and more than 20 µM.
On to `CCOc1nc(N)nc2ccc(-c3ccc(C(=O)NCC(C)C)cc3)cc12` [Example 150, 4-(2-Amino-4-ethoxy-quinazolin-6-yl)-N-isobutyl-benzamide], for which, in data set [1], the EC50 lay within 1 to 10 µM. In data set [2], this compound registered a CC50 at 3 days of 10 to 20 µM.
With `CCOc1nc(N)nc2ccc(-c3ccc(C(=O)NC4CCCCC4)cc3)cc12` [Example 151, 4-(2-Amino-4-ethoxy-quinazolin-6-yl)-N-cyclohexyl-benzamide], the EC50 in data set [1] was 1 to 10 µM. The same compound yielded a CC50 at 3 days in data set [2] of 10 to 20 µM.
As to `CCCCNC(=O)c1ccc(-c2ccc3nc(N)nc(OCC)c3c2)cc1` [Example 152, 4-(2-Amino-4-ethoxy-quinazolin-6-yl)-N-butyl-benzamide], the EC50 in data set [1] lay within 0.3 to 1 µM. The compound also yielded a CC50 at 3 days in data set [2] of more than 20 µM.
For `CCOc1nc(N)nc2ccc(-c3ccc(C(=O)NC(C)(C)C)cc3)cc12` [Example 153, 4-(2-Amino-4-ethoxy-quinazolin-6-yl)-N-tert-butyl-benzamide], the concentration for a half-maximal effect (EC50) in data set [1] is 0.3 to 1 µM. Also, in data set [2], the CC50 at 3 days lay in the range of 10 to 20 µM.
For `CCOc1nc(N)nc2ccc(-c3ccc(C(=O)NC4CCCC4)cc3)cc12` [Example 154, 4-(2-Amino-4-ethoxy-quinazolin-6-yl)-N-cyclopentyl-benzamide], in that order: 0.3 to 1 µM and 10 to 20 µM.
`CCOc1nc(N)nc2ccc(-c3ccc(C(=O)NC(C)C)cc3)cc12` [Example 155, 4-(2-Amino-4-ethoxy-quinazolin-6-yl)-N-isopropyl-benzamide] returned an EC50 in data set [1] of 0.3 to 1 µM. In data set [2], this compound came in with a CC50 at 3 days of 10 to 20 µM.
For `CCOc1nc(N)nc2ccc(-c3ccc(C(=O)NOC)cc3)cc12` [Example 156, 4-(2-Amino-4-ethoxy-quinazolin-6-yl)-N-methoxy-benzamide] the same measures were 0.3 to 1 µM and more than 20 µM.
For `CCOc1nc(N)nc2ccc(-c3ccc(C(=O)NCc4ccco4)cc3)cc12` [Example 157, 4-(2-Amino-4-ethoxy-quinazolin-6-yl)-N-furan-2-ylmethyl-benzamide], in that order: 1 to 10 µM and more than 20 µM.
Turning to `CCOc1nc(N)nc2ccc(-c3ccc(C(=O)N4CCSC4)cc3)cc12` [Example 158, [4-(2-Amino-4-ethoxy-quinazolin-6-yl)-phenyl]-thiazolidin-3-yl-methanone], the EC50 in data set [1] lay within 1 to 10 µM. The same compound registered a CC50 at 3 days in data set [2] of more than 20 µM.
For `CCOc1nc(N)nc2ccc(-c3ccc(C(=O)NCCN(C)C)cc3)cc12` [Example 159] the same measures were less than 0.3 µM and less than 10 µM.
For `CCOc1nc(N)nc2ccc(-c3ccc(C(=O)Nc4ccccn4)cc3)cc12` [Example 160, 4-(2-Amino-4-ethoxy-quinazolin-6-yl)-N-pyridin-2-yl-benzamide], in that order: 1 to 10 µM and more than 20 µM.
For `CCOc1nc(N)nc2ccc(-c3ccc(C(=O)Nc4ccc(F)cc4)cc3)cc12` [Example 161, 4-(2-Amino-4-ethoxy-quinazolin-6-yl)-N-(4-fluoro-phenyl)-benzamide], in that order: 0.3 to 1 µM and less than 10 µM.
`CCOc1nc(N)nc2ccc(-c3ccc(C(=O)N4CCSCC4)cc3)cc12` [Example 162, [4-(2-Amino-4-ethoxy-quinazolin-6-yl)-phenyl]-thiomorpholin-4-yl-methanone] came in with an EC50 in data set [1] of 1 to 10 µM. Further, the CC50 at 3 days in data set [2] was more than 20 µM.
For `CCOc1nc(N)nc2ccc(-c3ccc(C(=O)NC4=NCCS4)cc3)cc12` [Example 163, 4-(2-Amino-4-ethoxy-quinazolin-6-yl)-N-(4,5-dihydro-thiazol-2-yl)-benzamide], in that order: 1 to 10 µM and more than 20 µM.
For `CCOc1nc(N)nc2ccc(-c3ccc(C(=O)NC)c(Cl)c3)cc12` [Example 164, 4-(2-Amino-4-ethoxy-quinazolin-6-yl)-2-chloro-N-methyl-benzamide] the same measures were 1 to 10 µM and more than 20 µM.
`CCOc1nc(N)nc2ccc(-c3ccc(C(=O)NC4CC4)c(Cl)c3)cc12` [Example 165, 4-(2-Amino-4-ethoxy-quinazolin-6-yl)-2-chloro-N-cyclopropyl-benzamide]: in data set [1], the EC50 was in the range of 1 to 10 µM. In addition, the CC50 at 3 days in data set [2] is more than 20 µM.
For `CCOc1nc(N)nc2ccc(-c3cccc(O)c3)cc12` [Example 166, 3-(2-Amino-4-ethoxy-quinazolin-6-yl)-phenol] the same measures were 1 to 10 µM and 10 to 20 µM.
For `CCOc1nc(N)nc2ccc(-c3ccc(C(=O)NC4CC4)cc3)cc12` [Example 167, 4-(2-Amino-4-ethoxy-quinazolin-6-yl)-N-cyclopropyl-benzamide] the same measures were less than 0.3 µM and more than 20 µM.
Compound `CCOc1nc(N)nc2ccc(-c3cccc(C(=O)NC)c3)cc12` [Example 168, 3-(2-Amino-4-ethoxy-quinazolin-6-yl)-N-methyl-benzamide] yielded an EC50 in data set [1] of 1 to 10 µM. The compound further showed a cytotoxic concentration (CC50) at 3 days in data set [2] of more than 20 µM.
With `CC(C)Oc1nc(N)nc2ccc(-c3ccc(C(=O)N4CCCCC4)cc3)cc12` [Example 169, [4-(2-Amino-4-isopropoxy-quinazolin-6-yl)-phenyl]-piperidin-1-yl-methanone], the half-maximal effective concentration (EC50) in data set [1] is 1 to 10 µM. In data set [2], this compound returned a CC50 at 3 days of more than 20 µM.
For the compound `CC(C)Oc1nc(N)nc2ccc(-c3ccc(C(=O)NCc4ccccc4)cc3)cc12` [Example 170, 4-(2-Amino-4-isopropoxy-quinazolin-6-yl)-N-benzyl-benzamide], in data set [1], the EC50 is 0.3 to 1 µM. The CC50 at 3 days in data set [2] is less than 10 µM.
For `CC(C)CNC(=O)c1ccc(-c2ccc3nc(N)nc(OC(C)C)c3c2)cc1` [Example 171, 4-(2-Amino-4-isopropoxy-quinazolin-6-yl)-N-isobutyl-benzamide] the same measures were 0.3 to 1 µM and 10 to 20 µM.
For `CC(C)Oc1nc(N)nc2ccc(-c3ccc(C(=O)NC4CCCCC4)cc3)cc12` [Example 172, 4-(2-Amino-4-isopropoxy-quinazolin-6-yl)-N-cyclohexyl-benzamide], in that order: 0.3 to 1 µM and less than 10 µM.
For `CCCCNC(=O)c1ccc(-c2ccc3nc(N)nc(OC(C)C)c3c2)cc1` [Example 173, 4-(2-Amino-4-isopropoxy-quinazolin-6-yl)-N-butyl-benzamide] the same measures were less than 0.3 µM and less than 10 µM.
`CC(C)Oc1nc(N)nc2ccc(-c3ccc(C(=O)NC(C)(C)C)cc3)cc12` [Example 174, 4-(2-Amino-4-isopropoxy-quinazolin-6-yl)-N-tert-butyl-benzamide] registered an EC50 in data set [1] of 0.3 to 1 µM. The compound further yielded a CC50 at 3 days in data set [2] of 10 to 20 µM.
For `CC(C)Oc1nc(N)nc2ccc(-c3ccc(C(=O)NC4CCCC4)cc3)cc12` [Example 175, 4-(2-Amino-4-isopropoxy-quinazolin-6-yl)-N-cyclopentyl-benzamide] the same measures were less than 0.3 µM and less than 10 µM.
For `CC(C)NC(=O)c1ccc(-c2ccc3nc(N)nc(OC(C)C)c3c2)cc1` [Example 176, 4-(2-Amino-4-isopropoxy-quinazolin-6-yl)-N-isopropyl-benzamide], in that order: less than 0.3 µM and 10 to 20 µM.
For `CONC(=O)c1ccc(-c2ccc3nc(N)nc(OC(C)C)c3c2)cc1` [Example 177, 4-(2-Amino-4-isopropoxy-quinazolin-6-yl)-N-methoxy-benzamide] the same measures were less than 0.3 µM and 10 to 20 µM.
With `CC(C)Oc1nc(N)nc2ccc(-c3ccc(C(=O)NCCN(C)C)cc3)cc12` [Example 178, 4-(2-Amino-4-isopropoxy-quinazolin-6-yl)-N-(2-dimethylamino-ethyl)-benzamide], the EC50 in data set [1] is less than 0.3 µM. Besides, in data set [2], the CC50 at 3 days is less than 10 µM.
